Assay results: patent publication US8802597B2, “Herbicidal pyrimidines” (E I du Pont de Nemours and Company, priority 2003, dated 2014)

Key:
[1] = system: late watergrass (Echinochloa oryzicola); test: Test E flooded paddy water application; format: in vivo; details: Flood, 21 days, scale 0 to 100 (0 no effect, 100 complete control); for Plant response rating, Watergrass, Late: 16 g ai/ha
Outline: (§1)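 Weeds sown in sterilized Tama silt loam (2.6% organic matter), greenhouse 29.5/26.7° C, 16-h photoperiod; at 2.0–2.5-leaf stage pots flooded to 3 cm and compound added to paddy water. Visual rating vs untreated controls after 21 days, 0 (no effect) to 100 (complete control).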

[2] = system: water seeded rice seedlings (Oryza sativa cv. ‘Japonica-M202’); test: Test E flooded paddy water application; format: in vivo; details: Flood, 21 days, scale 0 to 100 (0 no effect, 100 complete control); for Plant response rating, Rice, Water Seeded: 16 g ai/ha
Outline: as §1

[3] = system: rice flatsedge (Cyperus iria); test: Test E flooded paddy water application; format: in vivo; details: Flood, 21 days, scale 0 to 100 (0 no effect, 100 complete control); for Plant response rating, Flatsedge, Rice: 16 g ai/ha
Outline: as §1

Row | Structure (SMILES) | Watergrass, Late plant response rating ([1]; 32 g ai/ha) | Watergrass, Late plant response rating ([1]; 64 g ai/ha) | Watergrass, Late plant response rating ([1]; 125 g ai/ha) | Watergrass, Late plant response rating ([1]; 250 g ai/ha) | Plant response rating, Watergrass, Late [1] | Rice, Water Seeded plant response rating ([2]; 32 g ai/ha) | Rice, Water Seeded plant response rating ([2]; 64 g ai/ha) | Rice, Water Seeded plant response rating ([2]; 125 g ai/ha) | Rice, Water Seeded plant response rating ([2]; 250 g ai/ha) | Plant response rating, Rice, Water Seeded [2] | Flatsedge, Rice plant response rating ([3]; 32 g ai/ha) | Flatsedge, Rice plant response rating ([3]; 64 g ai/ha) | Flatsedge, Rice plant response rating ([3]; 125 g ai/ha) | Flatsedge, Rice plant response rating ([3]; 250 g ai/ha) | Plant response rating, Flatsedge, Rice [3] | melting point [°C]
1 | COC(=O)c1nc(-c2ccc(Cl)cc2)nc(N)c1Cl [Compound 58, methyl 6-amino-5-chloro-2-(4-chlorophenyl)-4-pyrimidinecarboxylate] | 0 | 0 | 0 | 0 | 0 | 0 | 0 | 0 | 20 | 0 | 100 | 100 | 100 | 100 | 40 | 215 to 218
2 | COC(=O)c1nc(-c2ccc(Br)cc2)nc(N)c1Cl [Compound 96, methyl 6-amino-2-(4-bromophenyl)-5-chloro-4-pyrimidinecarboxylate] | 0 | 0 | 0 | 0 | 0 | 0 | 0 | 10 | 10 | 0 | 100 | 100 | 100 | 100 | 100 | 223 to 224
3 | CCOC(=O)c1nc(-c2ccc(Br)cc2)nc(N)c1Cl [Compound 94, ethyl 6-amino-2-(4-bromophenyl)-5-chloro-4-pyrimidinecarboxylate] | 0 | 0 | 0 | 0 | 0 | 0 |  | 10 | 10 | 0 | 100 | 100 | 100 | 100 | 100 | 136 to 137
